Data published in paper PMC5078989, “Targeted inhibition of the COP9 signalosome for treatment of cancer” (Nature Communications, 2016).

Tested on: panel of cancer cell lines
Assay: Cell viability (CellTiter-Glo) dose-response across cancer cell line panel;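 note: after 72 h compound incubation with CellTiter-Glo ATP readout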
Assay type: cell-based, human
Conditions: Homo sapiens
Source text: Next, we explored the effect of CSN5 inhibition on the viability of cancer cells. To obtain a comprehensive picture, we generated dose–response curves with a CSN5 inhibitor across more than 500 cancer cell lines in a previously described standardized setting[47] (Supplementary Data 1).
A standardized CellTiter-Glo Assay (Promega #G7570) based on the quantification of ATP was applied according to the manufacturer's protocol to measure the amount of viable cells in culture. In brief, cells were seeded into 384-well plates at optimal density for each cell line. After 4 h, compounds were added at different concentrations in growth medium and incubated for another 72 h in a humidifying chamber at 37 °C and 5% CO2. […] EC50 values were calculated from the plot of percentage of inhibition versus inhibitor concentration using the nonlinear regression analysis software Origin 7.5SR6 (OriginLab Corp.).

EC50 (NALM-6, NALM-6): 8.08 nM
EC50 (NB1, NB-1): 7.56 nM
EC50 (NB-4, NB-4): 4.38 nM
EC50 (NCI-H28, NCI-H28): 10.1 nM
EC50 (NCI-H82, cell line NCI-H82): 1.25 nM
EC50 (NCI-H146, cell line NCI-H146): 10.9 nM
EC50 (NCI-H196, NCI-H196): 27 nM
EC50 (NCI-H226, cell line NCI-H226): 14.9 nM
EC50 (NCI-H358, NCI-H358): 10.3 nM
EC50 (NCI-H441, NCI-H441): 15.5 nM
EC50 (NCI-H460, cell line NCI-H460): 85.2 nM
EC50 (NCI-H520, cell line NCI-H520): 7.91 nM
EC50 (NCI-H524, NCI-H524): 7.72 nM
EC50 (NCI-H596, NCI-H596): 21 nM
EC50 (NCI-H647, cell line NCI-H647): 13.7 nM
EC50 (NCI-H650, NCI-H650): 118 nM
EC50 (NCI-H661, cell line NCI-H661): 17.3 nM
EC50 (NCI-H716, NCI-H716): 5.09 nM
EC50 (NCI-H727, NCI-H727): 27.4 nM
EC50 (NCI-H810, cell line NCI-H810): 11.8 nM
EC50 (NCI-H838, NCI-H838): 28.5 nM
EC50 (NCI-H841, NCI-H841): 18 nM
EC50 (NCI-H1048, NCI-H1048): 18.6 nM
EC50 (NCI-H1092, NCI-H1092): 19 nM
EC50 (NCI-H1184): 7.24 nM
EC50 (NCI-H1299, cell line NCI-H1299): 18.5 nM
EC50 (NCI-H1341): 11 nM
EC50 (NCI-H1355, cell line NCI-H1355): 27.8 nM
EC50 (NCI-H1437, cell line NCI-H1437): 19.5 nM
EC50 (NCI-H1563, cell line NCI-H1563): 57.8 nM
EC50 (NCI-H1568, cell line NCI-H1568): 12.2 nM
EC50 (NCI-H1573, NCI-H1573): 38.2 nM
EC50 (NCI-H1581, cell line NCI-H1581): 12.9 nM
EC50 (NCI-H1623, NCI-H1623): 14 nM
EC50 (NCI-H1650, cell line NCI-H1650): 3.29 nM
EC50 (NCI-H1651, NCI-H1651): 8.83 nM
EC50 (NCI-H1666, cell line NCI-H1666): 7.68 nM
EC50 (NCI-H1693, NCI-H1693): 5.61 nM
EC50 (NCI-H1703, cell line NCI-H1703): 9.11 nM
EC50 (NCI-H1734, NCI-H1734): 9.07 nM
EC50 (NCI-H1781, cell line NCI-H1781): 12.9 nM
EC50 (NCI-H1792, cell line NCI-H1792): 51.8 nM
EC50 (NCI-H1793, cell line NCI-H1793): 55.3 nM
EC50 (NCI-H1869): 3.35 nM
EC50 (NCI-H1944, NCI-H1944): 55.2 nM
EC50 (NCI-H1975, cell line NCI-H1975): 9.64 nM
EC50 (NCI-H2023, NCI-H2023): 24.1 nM
EC50 (NCI-H2073, NCI-H2073): 26.5 nM
EC50 (NCI-H2087, cell line NCI-H2087): 7.21 nM
EC50 (NCI-H2122, cell line NCI-H2122): 22.5 nM
EC50 (NCI-H2126, cell line NCI-H2126): 24.4 nM
EC50 (NCI-H2170, cell line NCI-H2170): 15.6 nM
EC50 (NCI-H2172, NCI-H2172): 51.5 nM
EC50 (NCI-H2405, NCI-H2405): 16.8 nM
EC50 (NCI-H2452, NCI-H2452): 21.7 nM
EC50 (NCI-H3255, NCI-H3255): 8.64 nM
EC50 (NOMO-1, NOMO-1): 11.9 nM
EC50 (NUGC-3, cell line NUGC-3): 11.9 nM
EC50 (NUGC-4, cell line NUGC-4): 16.2 nM
EC50 (OAW-42, OAW42): 14.4 nM
EC50 (OC 316): 8.98 nM
EC50 (OC-314, OC 314): 8.6 nM
EC50 (OCI-AML2, OCI-AML2): 8.61 nM
EC50 (OCI-AML-3, OCI-AML3): 5.45 nM
EC50 (OCI-AML-5, OCI-AML5): 9.17 nM
EC50 (OCI-LY19, OCI-LY-19): 11.2 nM
EC50 (OCI-Ly3, OCI-LY3): 5.53 nM
EC50 (OCI-Ly10, OCI-LY10): 5.53 nM
EC50 (OCI-M1, OCI-M1): 2.41 nM
EC50 (OE19, cell line OE19): 13.4 nM
EC50 (OE33, cell line OE33): 20.1 nM
EC50 (ONCO-DG-1, ONCO-DG-1): 11.6 nM
EC50 (OS-RC-2, OS-RC-2): 18.7 nM
EC50 (OUMS-23, OUMS-23): 14.1 nM
EC50 (OV7, OV7): 8.26 nM
EC50 (OV56, cell line OV56): 13.6 nM
EC50 (OV-90, OV-90): 15 nM
EC50 (OVCAR-4, cell line OVCAR-4): 12 nM
EC50 (OVCAR-8, cell line OVCAR-8): 19.3 nM
EC50 (OVISE): 9.83 nM
EC50 (OVSAHO): 9.15 nM
EC50 (P3HR-1, P3HR-1): 8.29 nM
EC50 (P12-Ichikawa): 1.82 nM
EC50 (P31-FUJ, P31/FUJ): 5.93 nM
EC50 (PANC-1, cell line PANC-1): 8.76 nM
EC50 (PANC-03-27, cell line Panc 03.27): 10.6 nM
EC50 (PC-14, cell line PC-14): 15.2 nM
EC50 (PE/CA-PJ41 (clone D2)): 9.74 nM
EC50 (PEER): 11.7 nM
EC50 (PF-382, PF-382): 2.73 nM
EC50 (PL-21, PL-21): 11.7 nM
EC50 (PLC-PRF-5, PLC/PRF/5): 7.53 nM
EC50 (PSN1, cell line PSN1): 10.4 nM
EC50 (PaTu 8988s, PA-TU-8988S): 13.7 nM
EC50 (Panc 02.03, cell line Panc 02.03): 11 nM
EC50 (Panc 04.03, cell line Panc 04.03): 22.6 nM
EC50 (Panc1005, cell line Panc 10.05): 5.21 nM
EC50 (RCC10RGB): 5.1 nM
EC50 (RCH-ACV): 2.1 nM
EC50 (RD): 7.69 nM
EC50 (REH): 4.69 nM
EC50 (RKN): 16.4 nM
EC50 (RMUG-S): 67.5 nM
EC50 (RPMI 8402, RPMI-8402): 5.89 nM
EC50 (RPMI-7951, cell line RPMI-7951): 10.1 nM
EC50 (RPMI-8226, cell line RPMI 8226): 3.33 nM
EC50 (RS4-11, cell line RS4;11): 1.7 nM
EC50 (RT-112, RT-112): 5.2 nM
EC50 (RVH-421, RVH-421): 8.58 nM
EC50 (Raji, cell line Raji): 10.7 nM
EC50 (Rec1, cell line REC-1): 9.53 nM
EC50 (Rh18, cell line RH-18): 31.3 nM
EC50 (Rh41, cell line RH-41): 7.35 nM
EC50 (Ri-1, RI-1): 4.9 nM
EC50 (SCaBER, cell line SCaBER): 14.3 nM
EC50 (SEM): 2.39 nM
EC50 (SET-2, cell line Set-2): 10.4 nM
EC50 (SF-126, SF126): 13.1 nM
EC50 (SF-295, cell line SF-295): 11.8 nM
EC50 (SH-4, SH-4): 4.59 nM
EC50 (SH-10-TC, cell line SH-10-TC): 16.1 nM
EC50 (SHP77, SHP-77): 12.1 nM
EC50 (SIG-M5, SIG-M5): 5.14 nM
EC50 (SJRH30, cell line SJRH30): 16.5 nM
EC50 (SJSA-1, cell line SJSA-1): 26.6 nM
EC50 (SK-BR-3, cell line SK-BR-3): 6.43 nM
EC50 (SK-CO-1, SK-CO-1): 5.8 nM
EC50 (SK-ES1, cell line SK-ES-1): 9.79 nM
EC50 (SK-LMS-1, SK-LMS-1): 8.32 nM
EC50 (SK-LU-1, SK-LU-1): 9.51 nM
EC50 (SK-MEL3, cell line SK-MEL-3): 8.95 nM
EC50 (SK-MEL-1, SK-MEL-1): 18.7 nM
EC50 (SK-MEL-2, cell line SK-MEL-2): 10.4 nM
EC50 (SK-MEL-5, cell line SK-MEL-5): 8.81 nM
EC50 (SK-MEL-24, SK-MEL-24): 19.7 nM
EC50 (SK-MEL-30, cell line SK-MEL-30): 10.7 nM
EC50 (SK-MES-1, cell line SK-MES-1): 15.8 nM
EC50 (SK-N-AS, cell line SK-N-AS): 7.25 nM
EC50 (SK-N-DZ): 8.89 nM
EC50 (SK-N-FI, cell line SK-N-FI): 11.5 nM
EC50 (SK-N-SH): 7.2 nM
EC50 (SK-OV-3, cell line SK-OV-3): 26.8 nM
EC50 (SK-UT-1, SK-UT-1): 8.52 nM
EC50 (SKM-1, SKM-1): 3.7 nM
EC50 (SKNBE2, SK-N-BE(2)): 8.65 nM
EC50 (SNG-M): 7.04 nM
EC50 (SNU1, SNU-1): 17 nM
EC50 (SNU878, SNU-878): 22.9 nM
EC50 (SNU-16, cell line SNU-16): 5.79 nM
EC50 (SNU-119): 19.4 nM
EC50 (SNU-216, SNU-216): 15 nM
EC50 (SNU-449, SNU-449): 29.9 nM
EC50 (SNU-475, SNU-475): 24.7 nM
EC50 (SNU-626): 15.1 nM
EC50 (SNU-738): 32.7 nM
EC50 (SNU-1079): 8.89 nM
EC50 (SNU-C1, SNU-C1): 3.82 nM
EC50 (SNU-C5): 16.7 nM
SMILES: CC(C)C[C@H](NC(=O)[C@H](Cc1ccccc1)NC(=O)c1cnccn1)B(O)O [Bortezomib]
